Assay results published in patent US9399032B2, “Methods and compositions for treating degenerative and ischemic disorders” (The General Hospital Corporation, priority 2009, dated 2016).
Counter-ions that a name gives are not always drawn.

What was measured:
MCH58 fibroblasts [1] = assay: Global gene expression profile and quantitative RT-PCR; type: cell-based, human
Description: Next, a global gene expression profile was performed on fibroblasts following a six hour meclizine treatment (i.e., a time point having maximal OXPHOS inhibition). Oligonucleotide microarray experiments were conducted as follows. Total RNA was extracted from ˜2 million MCH58 cells with RNeasy mini kit (Qiagen). Cells were either grown in 10 mM glucose or 10 mM galactose for 3 passages and for the drug treated samples, and treated with either 0.1% DMSO or 50 μM meclizine for 6 hours. 10 ug of RNA was used to synthesize cDNA with a T7-(dT)24 primer and the SuperScript one-cycle cDNA synthesis kit (Affymetrix). cRNA labeling, hybridization to human U133 plus 2.0 oligonucleotide array (Affymetrix, CA), washing and staining were performed as recommended by Affymetrix. For each condition, 3 biological replicates were used for the total of 6 arrays. GLS expression was confirmed by quantitative RT-PCR using TaqMan assay (Applied Biosystems).

[2] = tested on: Immortalized mouse striatal 20A5 cells; assay: Oxygen and glucose deprivation model of ischemia and reperfusion; type: cell-based; conditions: 25 μM pretreatment for 8 hours, over vehicle
Description: Immortalized mouse striatal 20A5 cells grown in DMEM with 10% dialyzed fetal bovine serum were exposed to oxygen and glucose deprivation for 18 hours followed by 12 hours of recovery in normoxia with full media. This IR model induces roughly 30% decrease in cell viability as measured by the ATP luminescence assay CellTiter-GLO.

[3] = tested on: purified recombinant PCYT2; assay: PCYT2 enzyme assay in vitro; type: biochemical; conditions: 50-1000 μM meclizine or 50-600 μM S-meclizine
Description: FIGS. 16 C-D are line graphs showing that PCYT2 (CTP:phosphoethanolamine cytidylyltransferase 2) is a target of meclizine (16C) and S-meclizine (16D). PCYT2 enzyme assays were carried out in vitro with purified recombinant PCYT2 in the presence of 50-1000 μM meclizine or 50-600 μM of S-meclizine.
CTP:Phosphoethanolamine Cytidylyltransferase (PCYT2) catalyzes the formation of CDP-ethanolamine, which is often the rate regulatory step in the PE-Kennedy pathway. See, e.g., Fullerton et al., J Biol Chem 18; 284(38):25704-13 (2009). To determine whether meclizine affects PCYT2 activity, PCYT2 (CTP:phosphoethanolamine cytidylyltransferase 2) enzyme assays were carried out in vitro with purified recombinant PCYT2 in the presence of 50-1000 μM meclizine or 50-600 μM of S-meclizine. For additional details see Zhu et al., J Lipid Res 49: 2197 (2008).

[4] = tested on: Mitochondria isolated from C57BL/6 mouse kidneys; assay: Bioenergetics of isolated mitochondria; type: biochemical; conditions: acute addition
Description: Mootha et al., Am J Physiol 272:[…] (1997). State 2 respiration was initiated with the addition of 2.5 mM glutamate and 2.5 mM malate. State 3 respiration was initiated with the addition of 50 nmoles ADP. Uncoupled respiration was initiated with the addition of 5 μM CCCP (Sigma Cat No C2759). O2 consumption was monitored with a Fiber Optic Oxygen sensor probe from Ocean Optics, and NADH (endogenous, 370±7 nm excitation, 440±4 nm emission) and membrane potential (1.25 μM TMRM, 546±7 nm excitation, 590±4 nm emission) were measured with a Perkin-Elmer LS50B fluorimeter. A representative trace is shown from 6 independent experiments. 1M stock of phosphoethanolamine (Sigma P0503) was made in sterile water and pH was adjusted to 7.4 by 1N potassium hydroxide solution.

MCH58 fibroblasts [5] = assay: Cellular oxygen consumption rate (OCR), extracellular acidification rate (ECAR) and lactic acid production; type: cell-based, human
Description: Cellular oxygen consumption and extracellular acidification assays were performed as follows. Briefly, MCH58 fibroblasts were seeded in XF24-well cell culture microplates (Seahorse Bioscience) at 30,000 cells/well in 10 mM glucose or 10 mM galactose media and incubated at 37° C./5% CO2 for ˜20 hours. Prior to the measurements, the growth medium was replaced with ˜925 μL of assay medium. The assay medium consisted of DMEM Base (Sigma Cat No D5030), 2 mM GlutaMax-1 (Gibco Cat No 350350-061), 1 mM Sodium Pyruvate (Sigma Cat No S8636), 10 mM Glucose (Sigma Cat No G8270) or Galactose (Sigma Cat No G5388), (1.85 g/L) Sodium Chloride and (15 mg/L) phenol red. The pH of the assay medium was adjusted to 7.4 with 1 N Sodium Hydroxide. The cells were incubated at 37° C. for 60 min in the assay medium prior to measurements.
The OCR and ECAR measurements on HeLa, 293, and STHdh^Q7/7 mouse striatal cells were carried out by growing them in XF24 plates at 40,000/well (HeLa) and STHdh^Q7/7 mouse striatal cells) and 60,000/well (293 cells) for ˜20 hours in their regular growth conditions. The assay medium was the same as above except that 25 mM glucose was used as the sugar source. The measurements were performed simultaneously every 7 minutes after a 2 minute mix and 2 minute wait period for MCH fibroblasts and every 6 minutes (with 2 minutes mix and 2 minute wait) for HeLa, 293, and STHdh^Q7/7 mouse striatal cells. Three baseline measurements were recorded prior to the addition of oligomycin (Biochemika 75352), Antimycin (Sigma A8674), roetnone (Sigma R8875), carbonyl cyanide 3-chlorophenylhydrazone (Sigma C2759) and meclizine hydrochloride (MSDiscovery 01500376). 50 mM stock solution of meclizine was made in DMSO, which was diluted to specified concentration in assay medium and its pH was adjusted to 7.4 by 1N Sodium hydroxide solution. The measurements were carried out at 33° C. for mouse striatal cells but for all other cell types measurement were done at 37° C.

Cc1cccc(CN2CCN(C(c3ccccc3)c3ccc(Cl)cc3)CC2)c1 (racemic) [Meclizine, meclizine hydrochloride]
HK2 expression fold change (MCH58 fibroblasts [1]; 50 μM, 6 hours): 1.5 fold | TXNIP expression downregulated (MCH58 fibroblasts [1]; 50 μM, 6 hours): 35% | GLS expression downregulated (microarray) (MCH58 fibroblasts [1]; 50 μM, 6 hours, relative to vehicle): ~40% | reduction in GLS transcript by quantitative real-time PCR (MCH58 fibroblasts [1]; 6 hours of treatment): 50% | cell viability after oxygen and glucose deprivation [2]: significant improvement in cell viability | PCYT2 binding and inhibition [3]: binD to, and inhibit | mitochondrial oxygen consumption in isolated mitochondria [4]: had no effect | Km for switching energy metabolism versus published Km for blocking H1 receptors (MCH58 fibroblasts [5]): about a hundred fold higher | lactic acid production (MCH58 fibroblasts [5]; requiring several hours to develop): increased lactic acid production in a dose-dependent manner | oxygen consumption rates (MCH58 fibroblasts [5]; whole cell bioenergetic kinetic assays): reduced oxygen consumption rates
